The values that follow come from patent publication US20240299499A1, “Therapeutic Peptide Formulations” (Eli Lilly and Company, priority 2020, published 2024).

Converted amounts (≈) assume the structure as drawn. Where two headings read alike, the source gives them in different places.

Format in all cases: physicochemical
Data set [1] is described as follows: Solution formulation feasibility study: covalent aggregates by SEC. Particulars: pH values of 7.0-8.5. As to the method: Solutions were filtered through […] PVDF filters. In a laminar flow hood, the solutions were filled into glass vials. Vials were capped, and stored at 5° C., 25° C. and 30° C. Samples were withdrawn and submitted for testing as follows: (a) initial testing; (b) two weeks; and (c) one month. The formation of covalent aggregates was measured by size-exclusion chromatography (SEC).
In general terms: Size exclusion chromatography separates by hydrodynamic size, large species first.

Data set [2] in a line: Solubility of Compound 1 at 25° C. between pH 5.0 and pH 7.0 (UV-Vis at 280 nm). As to the method:
All solutions comprised 10 mM tris (1.21 g/L) and 0.05% EDTA (0.5 g/L). The solution pH was titrated using either 1N hydrochloric acid or concentrated tris base stock solution.
The concentration of Compound 1 was measured at 280 nm by a UV-Vis spectrophotometer (SoloVPE). UV-Vis spectrophotometer is commonly used for quantification of proteins or peptides in solution. A characteristic UV absorption spectrum around 280 nm is predominately from the aromatic amino acids such as tryptophan (Trp, W) and tyrosine (Tyr, Y). When the molar extinction coefficient of the protein or peptide is known, the Beer-Lambert law is used to accurately quantitate amount of protein or peptide by UV absorbance, assuming the molecule contains no UV-absorbing non-proteinaceous components such as bound nucleotide cofactors, heme, or iron-sulfur centers. Compound 1 has tyrosine amino acid residues at positions 10 and 13 and has a tryptophan amino acid residue at position 25 and has an extinction coefficient of 1.86 mL·mg^−1·cm^−1 (as calculated by the Pace Method). Measuring the peptide concentration at different pH conditions by this method is appropriate for Compound 1.

A short description of data set [3]: Effect of antioxidants: chemical stability by RP-HPLC (total impurities, Trp oxidation). Conditions: refrigerated condition. How it is done: Solutions were filtered through […] PVDF filters. In a laminar flow hood, the solutions were filled into glass vials. Vials were capped, and stored at 5° C., 25° C. and 30° C. Four formulations comprising Compound 1 were prepared to evaluate the stabilization efficacy of antioxidants, namely, EDTA, citrate and methionine. […] Subsequently, a fifth sample containing higher concentration of methionine (100 mM vs. 10 mM) was prepared to evaluate the effect of methionine concentration (Table 15, Lot No. 26). Samples were prepared, and stored at 5° C., 25° C. and 30° C. for up to 3 months. At appropriate times, stability-indicating assays were performed to assess the physical and chemical stability.
At 25° C. and 30° C., there are significant differences in stabilization efficacy.

As for `CC(C)C[C@H](NC(=O)[C@H](CC(C)C)NC(=O)[C@H](Cc1c[nH]c2ccccc12)NC(=O)[C@H](CCC(=O)O)NC(=O)[C@@H](NC(=O)[C@H](Cc1ccccc1)NC(=O)[C@H](CCC(=O)O)NC(=O)[C@H](CCCCNC(=O)COCCOCCNC(=O)COCCOCCNC(=O)CC[C@H](NC(=O)CCCCCCCCCCCCCCCCCCC(=O)O)C(=O)O)NC(=O)[C@H](C)NC(=O)[C@H](CCCCN)NC(=O)[C@H](CCCCN)NC(=O)[C@H](CCC(=O)O)NC(=O)[C@H](CC(=O)O)NC(=O)[C@H](CC(C)C)NC(=O)[C@H](Cc1ccc(O)cc1)NC(=O)[C@H](CCCCN)NC(=O)[C@H](CO)NC(=O)[C@H](Cc1ccc(O)cc1)NC(=O)[C@H](CC(=O)O)NC(=O)[C@H](CO)NC(=O)[C@@H](NC(=O)[C@H](Cc1ccccc1)NC(=O)[C@@H](NC(=O)CNC(=O)[C@H](CCC(N)=O)NC(=O)C(C)(C)NC(=O)[C@@H](N)Cc1c[nH]cn1)[C@@H](C)O)[C@@H](C)O)C(C)C)C(=O)N[C@@H](CCC(=O)O)C(=O)NCC(=O)NCC(=O)N1CCC[C@H]1C(=O)N[C@@H](CO)C(=O)N[C@@H](CO)C(=O)NCC(N)=O` [Compound 1], in data set [1], the “stability in certain formulations” value was “sub-optimal stability”. The solubility in data set [2] (10 mM tris buffer with 0.05% EDTA, aqueous buffer, Solution pH 6.16, 10 mM tris and 0.05% EDTA, 25° C., read-out: Compound 1 concentration in solution) is 14.5 mg/mL (≈ 3.19 mM); in data set [2] (10 mM tris buffer with 0.05% EDTA, aqueous buffer, Solution pH 6.84, 10 mM tris and 0.05% EDTA, 25° C., read-out: Compound 1 concentration in solution), 44.6 mg/mL (≈ 9.76 mM); in data set [2] (lower pH values (e.g. pH 5.0 to 6.5)), “sub-optimal solubility”. In data set [2] (Solution pH 5.31, 10 mM tris and 0.05% EDTA, 25° C.), the “Compound 1 concentration in solution” value stood at 0.00 mg/mL. Also, the “solubility (change with pH)” value in data set [2] (pH increased from 5.3 to 6.8) is “increased significantly”. Further, the “solubility by extrapolation of the data” value in data set [2] (pH values of 7.0 and above) was “higher”. For the same compound, the “chemical degradation by RP-HPLC” value in data set [3] is recorded as “not substantial”.
